Assay results published in patent publication US6362188B1, “Farnesyl protein transferase inhibitors” (Schering Corporation, priority 1998, dated 2002).

Assays:
Human tumor cells = test: Soft Agar Assay (anchorage-independent growth); format: cell-based; conditions: colony outgrowth in soft agar, stated as a range for the group
Procedure: Anchorage-independent growth is a characteristic of tumorigenic cell lines. Human tumor cells can be suspended in growth medium containing 0.3% agarose and an indicated concentration of a farnesyl transferase inhibitor. The solution can be overlayed onto growth medium solidified with 0.6% agarose containing the same concentration of farnesyl transferase inhibitor as the top layer. After the top layer is solidified, plates can be incubated for 10-16 days at 37° C. under 5% CO2 to allow colony outgrowth. After incubation, the colonies can be stained by overlaying the agar with a solution of MTT (3-[4,5-dimethyl-thiazol-2-yl]-2,5-diphenyltetrazolium bromide, Thiazolyl blue) (1 mg/mL in PBS). Colonies can be counted and the IC50's can be determined.

SMILES	IC50 (Human tumor cells) [nM]	melting point [°C]
Cc1ncn(CC2CCCN(C(=O)C3CN(C4c5ccc(Cl)cc5CCc5cccnc54)CCN3C(=O)OC3CCCCC3)C2)c1C (single isomer, unassigned) [47(G)]	0.05 to 30	98 to 130
Cc1nccn1CC1CCCN(C(=O)C2CN(C3c4ccc(Cl)cc4CCc4cccnc43)CCN2C(=O)OC(C)(C)C)C1 (single isomer, unassigned) [Example 27]	0.5 to 30	110 to 119
Cc1cn(CC2CCCN(C(=O)C3CN(C4c5ccc(Cl)cc5CCc5cccnc54)CCN3C(=O)OC(C)(C)C)C2)cn1 (single isomer, unassigned) [Example 29]	0.5 to 30	109 to 124
Cc1nccn1CC1CCCN(C(=O)C2CN(C3c4ccc(Cl)cc4CCc4cccnc43)CCN2C(=O)OC(C)C)C1 (single isomer, unassigned) [Example 38]	0.5 to 30	92 to 101
Cc1nccn1CC1CCCN(C(=O)C2CN(C3c4ccc(Cl)cc4CCc4cccnc43)CCN2C(=O)OC2CCCCC2)C1 (single isomer, unassigned) [Example 44]	0.5 to 30	112 to 135
Cc1cn(CC2CCCN(C(=O)C3CN(C4c5ccccc5CCc5cc(Cl)cnc54)CCN3C(=O)OC(C)(C)C)C2)cn1 (single isomer, unassigned) [Example 291]	0.05 to 30	99 to 107
CCc1cn(CC2CCCN(C(=O)C3CN(C4c5ccc(Cl)cc5CCc5cccnc54)CCN3C(=O)OC(C)(C)C)C2)cn1 (stereo not drawn) [35(A)]	0.05 to 30	110 to 112
Cc1cn(CC2CCCN2C(=O)C2CN(C3c4ccc(Cl)cc4CCc4cccnc43)CCN2C(=O)OC(C)(C)C)cn1 (stereo not drawn) [35(F)]	0.05 to 30	115 to 120
CC(C)OC(=O)N1CCN(C2c3ccc(Cl)cc3CCc3cccnc32)CC1C(=O)N1CCCC(Oc2cccnc2)C1 (stereo not drawn) [41(C)]	0.05 to 30	104 to 108
CCc1cn(CC2CCCN(C(=O)C3CN(C4c5ccc(Cl)cc5CCc5cccnc54)CCN3C(=O)OC3CCCCC3)C2)cn1 (stereo not drawn) [47(D)]	0.05 to 30	66 to 68
O=C(C1CN(C2c3ccc(Cl)cc3CCc3cccnc32)CCN1C(=O)OC1CCCCC1)N1CCCC(Cc2cnc[nH]2)C1 (stereo not drawn) [47(I)]	0.05 to 30	113 to 115
Cn1cncc1CC1CCCN(C(=O)C2CN(C3c4ccc(Cl)cc4CCc4cccnc43)CCN2C(=O)OC2CCCCC2)C1 (stereo not drawn) [47(K)]	0.05 to 30	101 to 123
O=C(C1CN(C2c3ccc(Cl)cc3CCc3cccnc32)CCN1C(=O)OC1CCCCC1)N1CCCC(Oc2cccnc2)C1 (stereo not drawn) [47(U)]	0.05 to 30	117 to 120
Cc1nccn1CC1CCCN(C(=O)C2CN(C3c4ccc(Cl)cc4CCc4cc(Br)cnc43)CCN2C(=O)OC(C)(C)C)C1 (stereo not drawn) [Example 3]	0.5 to 30	126 to 131
Cc1cn(CC2CCCN(C(=O)C3CN(C4c5ccc(Cl)cc5CCc5cc(Br)cnc54)CCN3C(=O)OC(C)(C)C)C2)cn1 (stereo not drawn) [Example 4.1]	0.5 to 30	114 to 121
CN1CCN(C(=O)C2CN(C3c4ccc(Cl)cc4CCc4cc(Br)cnc43)CCN2C(=O)OC(C)(C)C)CC1Cn1ccnc1 (stereo not drawn) [Example 5]	0.5 to 30	123 to 134
CC(C)(C)OC(=O)N1CCN([C@@H]2c3ccc(Cl)cc3CCc3cc(Br)cnc32)C[C@@H]1C(=O)N1CCC[C@H](Cn2ccnc2)C1 [Example 10]	0.5 to 30	130 to 134
CC(C)(C)OC(=O)N1CCN([C@H]2c3ccc(Cl)cc3CCc3cc(Br)cnc32)C[C@@H]1C(=O)N1CCC[C@H](Cn2ccnc2)C1 [Example 11]	0.5 to 30	122 to 127
CC(C)(C)OC(=O)N1CCN([C@@H]2c3ccc(Cl)cc3CCc3cc(Br)cnc32)C[C@@H]1C(=O)N1CCC[C@@H](Cn2ccnc2)C1 [Example 12]	0.5 to 30	135 to 138
CC(C)(C)OC(=O)N1CCN([C@H]2c3ccc(Cl)cc3CCc3cc(Br)cnc32)C[C@@H]1C(=O)N1CCC[C@@H](Cn2ccnc2)C1 [Example 13]	0.5 to 30	127 to 130
CC(C)OC(=O)N1CCN([C@@H]2c3ccc(Cl)cc3CCc3cc(Br)cnc32)C[C@@H]1C(=O)N1CCC[C@@H](Cn2ccnc2)C1 [Example 14]	0.5 to 30	126 to 128
O=C([C@H]1CN([C@@H]2c3ccc(Cl)cc3CCc3cc(Br)cnc32)CCN1C(=O)OC1CCCCC1)N1CCC[C@@H](Cn2ccnc2)C1 [Example 15]	0.5 to 30	140 to 144
CC(C)(C)NC(=O)N1CCN([C@@H]2c3ccc(Cl)cc3CCc3cc(Br)cnc32)C[C@@H]1C(=O)N1CCC[C@@H](Cn2ccnc2)C1 [Example 16]	0.5 to 30	148 to 153

SMILES	IC50 (Human tumor cells) [nM]	melting point [°C]
CC(C)(C)OC(=O)N1CCN(C2c3ccc(Cl)cc3CCc3cccnc32)CC1C(=O)N1CCCC(Cn2ccnc2)C1 (stereo not drawn) [Example 24]	0.5 to 30	115 to 126
Cc1nccn1CC1CCCN(C(=O)C2CN(C3c4ccc(Cl)cc4CCc4cccnc43)CCN2C(=O)OC(C)(C)C)C1 (stereo not drawn) [Example 26]	0.5 to 30	120 to 132
Cc1cn(CC2CCCN(C(=O)C3CN(C4c5ccc(Cl)cc5CCc5cccnc54)CCN3C(=O)OC(C)(C)C)C2)cn1 (stereo not drawn) [Example 28]	0.5 to 30	115 to 132
Cc1cn(CC2CCCCN(C(=O)C3CN(C4c5ccc(Cl)cc5CCc5cccnc54)CCN3C(=O)OC3CCCCC3)C2)cn1 (stereo not drawn) [Example 47(CC)]	0.05 to 30	108 to 113
Cc1nccn1C[C@H]1CCCN(C(=O)[C@H]2CN([C@H]3c4ccc(Cl)cc4CCc4cccnc43)CCN2C(=O)NC(C)(C)C)C1 [Example 48]	0.5 to 30	111 to 140
Cc1cn(C[C@@H]2CCCN(C(=O)[C@H]3CN([C@H]4c5ccc(Cl)cc5CCc5cc(Br)cnc54)CCN3C(=O)Cc3ccc(F)cc3)C2)cn1 [Example 197]	0.05 to 30	105 to 110
Cc1cn(C[C@@H]2CCCN(C(=O)[C@H]3CN([C@H]4c5ccc(Cl)cc5CCc5cc(Cl)cnc54)CCN3C(=O)OC(C)(C)C)C2)cn1 [Example 227]	0.05 to 30	100 to 116
Cc1cn(C[C@@H]2CCCN(C(=O)[C@H]3CN([C@@H]4c5ccc(Cl)cc5CCc5cc(Cl)cnc54)CCN3C(=O)OC(C)(C)C)C2)cn1 [Example 228]	0.05 to 30	115 to 128
Cc1cn(C[C@H]2CCCN(C(=O)[C@H]3CN([C@H]4c5ccc(Cl)cc5CCc5cc(Cl)cnc54)CCN3C(=O)OC(C)(C)C)C2)cn1 [Example 229]	0.05 to 30	102 to 113
Cc1cn(CC2CCCN(C(=O)C3CN(C4c5ccc(Cl)cc5CCc5cc(Cl)cnc54)CCN3C(=O)OC(C)(C)C)C2)cn1 (stereo not drawn) [Example 230]	0.05 to 30	121 to 127
O=C([C@H]1CN(C2c3ccc(Cl)cc3CCc3cc(Cl)cnc32)CCN1C(=O)OC1CCCCC1)N1CCCC(Oc2cccnc2)C1 (stereo partly drawn) [Example 254A]	–	105 to 113
Cc1cn(C[C@@H]2CCCN(C(=O)[C@H]3CN([C@H]4c5ccc(Cl)cc5CCc5cc(Cl)cnc54)CCN3C(=O)OC3CCCCC3)C2)cn1 [Example 255]	0.05 to 30	116 to 126
Cc1cn(C[C@@H]2CCCN(C(=O)[C@H]3CN([C@@H]4c5ccc(Cl)cc5CCc5cc(Cl)cnc54)CCN3C(=O)OC3CCCCC3)C2)cn1 [Example 256]	0.05 to 30	122 to 128
Cc1cn(C[C@H]2CCCN(C(=O)[C@H]3CN([C@H]4c5ccc(Cl)cc5CCc5cc(Cl)cnc54)CCN3C(=O)OC3CCCCC3)C2)cn1 [Example 257]	0.05 to 30	115 to 128
Cc1cn(C[C@H]2CCCN(C(=O)[C@H]3CN([C@@H]4c5ccc(Cl)cc5CCc5cc(Cl)cnc54)CCN3C(=O)OC3CCCCC3)C2)cn1 [Example 258]	0.05 to 30	115 to 128
Cc1cn(C[C@@H]2CCCN(C(=O)[C@H]3CN([C@H]4c5ccc(Cl)cc5CCc5cc(F)cnc54)CCN3C(=O)OC(C)(C)C)C2)cn1 [Example 259]	0.05 to 30	126 to 135
Cc1cn(C[C@@H]2CCCN(C(=O)[C@H]3CN([C@@H]4c5ccc(Cl)cc5CCc5cc(F)cnc54)CCN3C(=O)OC(C)(C)C)C2)cn1 [Example 260]	0.05 to 30	110 to 116
Cc1cn(C[C@H]2CCCN(C(=O)[C@H]3CN([C@H]4c5ccc(Cl)cc5CCc5cc(F)cnc54)CCN3C(=O)OC(C)(C)C)C2)cn1 [Example 261]	0.05 to 30	115 to 118
Cc1cn(C[C@H]2CCCN(C(=O)[C@H]3CN([C@@H]4c5ccc(Cl)cc5CCc5cc(F)cnc54)CCN3C(=O)OC(C)(C)C)C2)cn1 [Example 262]	0.05 to 30	122 to 126
Cc1cn(CC2CCCN(C(=O)C3CN(C4c5ccc(Cl)cc5CCc5cc(F)cnc54)CCN3C(=O)OC3CCCCC3)C2)cn1 (stereo not drawn) [Example 287]	0.05 to 30	116 to 123
Cc1cn(C[C@@H]2CCCN(C(=O)[C@H]3CN([C@@H]4c5ccc(Cl)cc5CCc5cc(F)cnc54)CCN3C(=O)OC3CCCCC3)C2)cn1 [Example 288]	0.05 to 30	128 to 134
Cc1cn(C[C@H]2CCCN(C(=O)[C@H]3CN([C@H]4c5ccc(Cl)cc5CCc5cc(F)cnc54)CCN3C(=O)OC3CCCCC3)C2)cn1 [Example 289]	0.05 to 30	120 to 126
Cc1cn(C[C@@H]2CCCN(C(=O)[C@H]3CN(C4c5ccccc5CCc5ccccc54)CCN3C(=O)OC3CCCCC3)C2)cn1 [Example 414]	–	98 to 112
